Test [1] has as its target T1, SARS-CoV-2 PLpro (nsp3 1564–1878) (Severe acute respiratory syndrome coronavirus 2, UniProt P0DTD1). Nature of the test: biochemical. Also noted: FRET-quenched peptide (Pro3) cleavage by PLpro, 10 min pre-incubation, slope over 20 min, normalised to no-compound control. Conditions: high concentration screen, read-out: % of control remaining.
In test [2] the target is T1, SARS-CoV-2 PLpro (nsp3 1564–1878). Nature of the test: biochemical. Also noted: FRET-quenched peptide (Pro3) cleavage by PLpro, 10 min pre-incubation, slope over 20 min, normalised to no-compound control. Conditions: low concentration screen, read-out: % of control remaining.

The structures appear in SMILES notation. Structures can show the parent of a compound that is named as a salt. Where two headings read alike, the source gives them in different places.

In the case of `CC[C@H]1OC(=O)C[C@@H](O)[C@H](C)[C@@H](O[C@@H]2O[C@H](C)[C@@H](O[C@H]3C[C@@](C)(O)[C@@H](O)[C@H](C)O3)[C@H](N(C)C)[C@H]2O)[C@@H](CC=O)C[C@@H](C)C(=O)/C=C/C(C)=C/[C@@H]1CO[C@@H]1O[C@H](C)[C@@H](O)[C@@H](OC)[C@H]1OC` [Tylosin], the remaining activity at 3.75 µM in test [1] (Well no.=2010) worked out at 97.8%. For the same compound, in test [2] (Well no.=2010), the remaining activity at 1.25 µM worked out at 96.7%.

With `CN1C[C@H](C(=O)N[C@]2(C)O[C@@]3(O)[C@@H]4CCCN4C(=O)[C@H](Cc4ccccc4)N3C2=O)C[C@@H]2c3cccc4[nH]cc(c34)C[C@H]21` [Dihydroergotamine methanesulfonate], the remaining activity at 3.75 µM in test [1] (Well no.=543) was determined as 104%. Moreover, the remaining activity at 1.25 µM in test [2] (Well no.=543) came out at 102%.

Consider `Nc1ncnc2c1ncn2[C@@H]1O[C@H](CO)[C@@H](O)[C@@H]1O` [Vidarabine], for which the remaining activity at 3.75 µM in test [1] (Well no.=2046) was determined as 110%; in test [1] (Well no.=8006) it was 95.5%. In addition, the figures for the remaining activity at 1.25 µM in test [2] (Well no.=2046) and in test [2] (Well no.=8006) were 107% and 93.6%, respectively.

On to `CC[C@@H](C)C(=O)O[C@H]1[C@H](O)[C@H]2[C@@H](CN3C[C@@H](C)CC[C@H]3[C@@]2(C)O)[C@@H]2C[C@]34O[C@]5(O)[C@@H](OC(=O)[C@](C)(O)[C@@H](C)O)CC[C@@]3(C)[C@@H]5[C@@H](OC(C)=O)[C@@H](OC(C)=O)[C@H]4[C@@]21O` (stereo in doubt) [Protoveratrine B], for which the remaining activity at 3.75 µM in test [1] (Well no.=3454) worked out at 98.3%. Besides, in test [2] (Well no.=3454), the remaining activity at 1.25 µM turned out to be 97.9%.

Turning to `Cc1cc(C(C)Nc2ccccc2)c2nc(N3CCOCC3)cc(=O)n2c1` (stereo not shown), the remaining activity at 3.75 µM in test [1] (Well no.=2577) was determined as 101%. Moreover, the remaining activity at 1.25 µM in test [2] (Well no.=2577) stood at 101%.

As for `CCN(CC)CCCC(C)Nc1c2ccc(Cl)cc2nc2ccc(OC)cc12` (stereo not shown) [Quinacrine], in test [1] (Well no.=2187), the remaining activity at 3.75 µM was 97.2%. In addition, in test [2] (Well no.=2187), the remaining activity at 1.25 µM was 96.6%.

Take `COc1cc(NS(=O)(=O)c2ccc(N)cc2)ncn1` [Sulfamonomethoxine]: the remaining activity at 3.75 µM in test [1] (Well no.=7544) was determined as 98.5%. For the same compound, the remaining activity at 1.25 µM in test [2] (Well no.=7544) came to 98.1%.

For `Cn1cnc2c(NCc3ccccc3)nc(NCCO)nc21` [Olomoucine], in test [1] (Well no.=800), the remaining activity at 3.75 µM amounted to 98.3%. In test [2] (Well no.=800), the remaining activity at 1.25 µM was 96.5%.

On to `COC(C)(C)CCCC(C)C/C=C/C(C)=C/C(=O)O` (stereo not shown) [Methoprene acid], for which, in test [1] (Well no.=4438), the remaining activity at 3.75 µM is 100%. Further, the remaining activity at 1.25 µM in test [2] (Well no.=4438) was found to be 98.3%.

With `O=C(O)C(O)Cc1ccccc1` (racemic) [DL-3-Phenyllactic acid], the remaining activity at 3.75 µM in test [1] (Well no.=7171) came out at 99.8%. Further, the remaining activity at 1.25 µM in test [2] (Well no.=7171) came out at 102%.

Take `CC(=O)N[C@H]1[C@H]([C@H](O)[C@H](O)CO)OC(C(=O)O)=C[C@@H]1NC(=N)N` [Zanamivir]: the remaining activity at 3.75 µM in test [1] (Well no.=5883) turned out to be 104%. For the same compound, in test [2] (Well no.=5883), the remaining activity at 1.25 µM was 103%.

For the compound `O=C(O)c1ccccc1Nc1cccc(C(F)(F)F)c1` [Flufenamic acid], in test [1] (Well no.=1639), the remaining activity at 3.75 µM is 105%. For the same compound, in test [2] (Well no.=1639), the remaining activity at 1.25 µM was determined as 104%.

As to `C[C@@H]1C(=O)O[C@H]2[C@H](O)[C@@]34[C@H]5C[C@@H](C(C)(C)C)[C@]36[C@@H](OC(=O)[C@@H]6O)O[C@@]4(C(=O)O5)[C@@]12O` [Ginkgolide B], the results for the remaining activity at 3.75 µM in test [1] (Well no.=3321) and in test [1] (Well no.=6484) were 101% and 92.7%, respectively. For the same compound, the remaining activity at 1.25 µM in test [2] (Well no.=3321) was 97.9%; in test [2] (Well no.=6484), 95.6%.

Consider `Cc1cccc(-c2[nH]c(C(C)(C)C)nc2-c2ccc3nccnc3c2)n1` [SB 525334], for which, in test [1] (Well no.=4901), the remaining activity at 3.75 µM was determined as 99.1%. The remaining activity at 1.25 µM in test [2] (Well no.=4901) came to 99.5%.

Regarding `NC(=O)c1ccc2[nH]ccc2c1` [p38 MAP Kinase Inhibitor VII, SD-169], the remaining activity at 3.75 µM in test [1] (Well no.=2531) was 94.8%. Also, the remaining activity at 1.25 µM in test [2] (Well no.=2531) came out at 99.1%.

Consider `COc1ccc(-c2nc(-c3cc(C(F)(F)F)cc(C(F)(F)F)c3)n(Cc3ccc(C(N)=O)cc3)c2-c2ccc(OC)cc2)cc1` [Apoptozole], for which the figures for the remaining activity at 3.75 µM in test [1] (Well no.=6596) and in test [1] (Well no.=8536) were 92.9% and 90.1%, respectively. The remaining activity at 1.25 µM in test [2] (Well no.=6596) worked out at 102%; in test [2] (Well no.=8536), 98.3%.

As for `C[C@@H]1[C@H](O)[C@@H](C)/C=C/C=C/C=C/C=C/C=C/C=C/C=C/[C@H](O[C@@H]2O[C@H](C)[C@@H](O)[C@H](N)[C@@H]2O)C[C@@H]2O[C@](O)(C[C@@H](O)C[C@@H](O)[C@H](O)CC[C@@H](O)C[C@@H](O)CC(=O)O[C@H]1C)C[C@H](O)[C@H]2C(=O)O` [Amphotericin B], the remaining activity at 3.75 µM in test [1] (Well no.=3470) worked out at 98.9%. In addition, the remaining activity at 1.25 µM in test [2] (Well no.=3470) came to 101%.

In the case of `O=c1ccn([C@@H]2O[C@H](COP(=O)(O)O)[C@@H](O)[C@H]2O)c(=O)[nH]1` [Uridine 5'-monophosphate disodium salt], in test [1] (Well no.=8935), the remaining activity at 3.75 µM was 97.2%. In test [2] (Well no.=8935), the remaining activity at 1.25 µM amounted to 112%.

On to `CCCCCCCCCCCCC(=O)O` [Tridecanoic acid], for which the remaining activity at 3.75 µM in test [1] (Well no.=4260) turned out to be 98%. In test [2] (Well no.=4260), the remaining activity at 1.25 µM was 106%.

With `CCCCCCCCCCCCCCCCCCOP(=O)([O-])OC1CC[N+](C)(C)CC1` [1,1-dimethylpiperidinium-4-yl octadecyl phosphate], the remaining activity at 3.75 µM in test [1] (Well no.=5460) worked out at 107%. The remaining activity at 1.25 µM in test [2] (Well no.=5460) is 102%.

`CCN(C)C(=O)Oc1cccc([C@H](C)N(C)C)c1` [Rivastigmine]: in test [1] (Well no.=1722), the remaining activity at 3.75 µM was found to be 96.3%. Besides, the remaining activity at 1.25 µM in test [2] (Well no.=1722) was determined as 95.2%.

On to `COC1=C(OC)C(=O)c2ccccc2C1=O` [2,3-Dimethoxy-1,4-naphthoquinone], for which the remaining activity at 3.75 µM in test [1] (Well no.=739) is 96.9%. Besides, the remaining activity at 1.25 µM in test [2] (Well no.=739) was 98%.

For `CC1(C)CCC(C)(C)c2cc(C(=O)Nc3ccc(C(=O)O)cc3)ccc21` [AM-580], the remaining activity at 3.75 µM in test [1] (Well no.=4434) came out at 86%. Moreover, the remaining activity at 1.25 µM in test [2] (Well no.=4434) worked out at 92.7%.

Regarding `c1cc(-c2cnn3cc(-c4ccc(OCCN5CCCCC5)cc4)cnc23)ccn1` [AMPK Inhibitor, Compound C], the remaining activity at 3.75 µM in test [1] (Well no.=2324) was determined as 103%. The remaining activity at 1.25 µM in test [2] (Well no.=2324) turned out to be 98.4%.

In the case of `CCn1c(=O)c2c(nc(/C=C/c3ccc(OC)c(OC)c3)n2C)n(CC)c1=O` [Istradefylline (KW-6002)], in test [1] (Well no.=5121), the remaining activity at 3.75 µM amounted to 110%. Besides, in test [2] (Well no.=5121), the remaining activity at 1.25 µM was 106%.

For the compound `CCc1c(C(=O)NCCc2ccc(N3CCCCC3)cc2)[nH]c2ccc(Cl)cc12` [Org 27569], the remaining activity at 3.75 µM in test [1] (Well no.=6238) is 105%. Moreover, in test [2] (Well no.=6238), the remaining activity at 1.25 µM was determined as 103%.

On to `Cc1ccc(N(CC2=NCCN2)c2cccc(O)c2)cc1` [Phentolamine mesylate], for which the remaining activity at 3.75 µM in test [1] (Well no.=1253) amounted to 106%. Moreover, the remaining activity at 1.25 µM in test [2] (Well no.=1253) was determined as 104%.

Regarding `CCOc1nc2cccc(C(=O)O)c2n1Cc1ccc(-c2ccccc2-c2nnn[nH]2)cc1` [Candesartan], the remaining activity at 3.75 µM in test [1] (Well no.=1846) was found to be 96.2%; in test [1] (Well no.=7380) it was 105%. Further, the remaining activity at 1.25 µM in test [2] (Well no.=1846) came out at 96.4%; in test [2] (Well no.=7380), 103%.

For the origin of these results see PMC8286840, “Identifying SARS-CoV-2 antiviral compounds by screening for small molecule inhibitors of Nsp3 papain-like protease” (Biochemical Journal, 2021).
